Results: US11440913B2, “Aminoimidazopyridazines as kinase inhibitors” (BRISTOL-MYERS SQUIBB COMPANY, priority 2017, dated 2022)
Counter-ions that a name gives are not always drawn. Like-named read-outs stand apart in the source and are kept apart here.

Legend:
[1] = target: His-GST-TVMV-hRIPK1(1-324) (Homo sapiens (Human), UniProt Q13546); assay: RIPK1 HTRF Binding Assay; details: HTRF binding, 1 h at rt; read-out: RIPK1 (IC50)
Method in brief: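 HTRF probe-displacement binding: 1 nM His-GST-TVMV-hRIPK1(1-324) (baculovirus construct), 90.6 nM probe, 0.2 nM anti-GST-Tb in 20 mM HEPES, 10 mM MgCl2, 0.015% Brij-35, 4 mM DTT, 0.05 mg/mL BSA. Incubated 1 h at rt; FRET 520/495 nm ratio, inhibition relative to DMSO-only wells.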

[2] = tested on: MLKL phosphorylation in HT29-L23 human colorectal adenocarcinoma cells; assay: MLKL Phosphorylation High-Content Assay; assay type: cell-based; details: necroptosis induced with TNFα, SMAC mimetic and Z-VAD, 6 h, read-out: pMLKL (IC50)
Method in brief: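 HT29-L23 cells pretreated 30 min at 37 °C with compound (6.25 to 0.106 μM final), then necroptosis induced with TNFα 35 ng/mL, SMAC mimetic 700 nM and Z-VAD 140 nM for 6 h. Fixed cells immunostained for MLKL pS358 and imaged; IC50 and Ymax from 4-parameter logistic fit.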

His-GST-TVMV-hRIPK1(1-324), sequence (Q13546 1-324): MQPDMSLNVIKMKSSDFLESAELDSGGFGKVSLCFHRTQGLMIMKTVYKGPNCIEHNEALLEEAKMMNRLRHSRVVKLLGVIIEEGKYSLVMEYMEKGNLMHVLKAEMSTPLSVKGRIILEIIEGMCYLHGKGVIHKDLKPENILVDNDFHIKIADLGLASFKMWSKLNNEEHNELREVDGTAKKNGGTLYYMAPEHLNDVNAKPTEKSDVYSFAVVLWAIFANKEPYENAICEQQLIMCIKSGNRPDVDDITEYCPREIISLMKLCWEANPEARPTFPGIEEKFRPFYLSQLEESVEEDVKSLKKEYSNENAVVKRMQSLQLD

With `CC(=O)Nc1cn2nc(-c3cnc(Cl)c(C(=O)NCc4cc(C(F)(F)F)ccc4F)c3)ccc2n1` [Example 275, 2-chloro-5-{2-acetamidoimidazo[1,2-b]pyridazin-6-yl}-N-{[2-fluoro-5-(trifluoromethyl)phenyl]methyl}pyridine-3-carboxamide] the IC50 [1] was 32 nM and the IC50 [2] was 52 nM.
Work on `CC(=O)Nc1cn2nc(-c3cnc(C)c(C(=O)N4CCCC(C(O)c5ccc(F)cc5)C4)c3)ccc2n1` (single isomer, unassigned) [Example 354, N-[6-(5-{3-[(4-fluorophenyl)(hydroxy)methyl]piperidine-1-carbonyl}-6-methylpyridin-3-yl)imidazo[1,2-b]pyridazin-2-yl]acetamide] yielded an IC50 [1] of 212 nM and an IC50 [2] of 223 nM.
Work on `Cc1nc(C)c(-c2ccc3nc(NC(=O)CO)cn3n2)cc1C(=O)NCc1cc(F)cc(F)c1O[C@H]1CCOC1` [Example 91, N-({3,5-difluoro-2-[(3S)-oxolan-3-yloxy]phenyl}methyl)-5-[2-(2-hydroxy-acetamido)imidazo[1,2-b]pyridazin-6-yl]-2,6-dimethylpyridine-3-carboxamide, TFA] yielded an IC50 [1] of 61 nM and an IC50 ([2]; Homo sapiens) of 442 nM.
Work on `COCC(=O)Nc1cn2nc(-c3cnc(OC)c(C(=O)NCc4cc(OCC5CC5)ccc4F)c3)ccc2n1` [Example 260, N-{[5-(cyclopropylmethoxy)-2-fluorophenyl]methyl}-2-methoxy-5-[2-(2-methoxyacetamido)imidazo[1,2-b]pyridazin-6-yl]pyridine-3-carboxamide] yielded an IC50 [1] of 18 nM and an IC50 ([2]; Homo sapiens) of 80 nM.
For `COc1nc(C)c(-c2ccc3nc(NC(C)=O)cn3n2)cc1C(=O)N(C)Cc1cccc(OC(F)(F)F)c1` [Example 281, 5-{2-acetamidoimidazo[1,2-b]pyridazin-6-yl}-2-methoxy-N,6-dimethyl-N-{[3-(trifluoromethoxy)phenyl]methyl}pyridine-3-carboxamide], the IC50 [1] was 6 nM and the IC50 ([2]; Homo sapiens) was 4 nM.
`Cc1ncc(-c2ccc3nc(NC(=O)CN4CCCC4)cn3n2)cc1C(=O)N[C@H](C)c1cc(C(F)(F)F)ccc1F` [Example 333, N-[(1R)-1-[2-fluoro-5-(trifluoromethyl)-phenyl]ethyl]-2-methyl-5-{2-[2-(pynolidin-1-yl)acetamido]imidazo[1,2-b]pyridazin-6-yl}pyridine-3-carboxamide] showed an IC50 [1] of 91 nM and an IC50 ([2]; Homo sapiens) of 218 nM.
`COc1nc(C)c(-c2ccc3nc(NC(C)=O)cn3n2)cc1C(=O)NCCc1cccc(OC(F)(F)F)c1` [Example 304, 5-{2-acetamidoimidazo[1,2-b]pyridazin-6-yl}-2-methoxy-6-methyl-N-{2-[3-(trifluoromethoxy)phenyl]ethyl}pyridine-3-carboxamide] showed an IC50 [1] of 206 nM and an IC50 ([2]; Homo sapiens) of 67 nM.
`CC(=O)Nc1cn2nc(-c3cnc(C)c(C(=O)N(C)[C@H](C)c4cc(OC(F)(F)F)ccc4F)c3)ccc2n1` [Example 330, 5-{2-acetamidoimidazo[1,2-b]pyridazin-6-yl}-N-[(1R)-1-[2-fluoro-5-(trifluoromethoxy)phenyl]ethyl]-N,2-dimethylpyridine-3-carboxamide] was tested, and the IC50 [1] was 46 nM and the IC50 ([2]; Homo sapiens) was 106 nM.
With `Cc1nc(C)c(-c2ccc3nc(NC(=O)CO)cn3n2)cc1C(=O)N[C@H](C)c1cc(C(F)(F)F)ccc1F` [Example 92, N-[(1R)-1-[2-fluoro-5-(trifluoromethyl)phenyl]ethyl]-5-[2-(2-hydroxyacet-amido)imidazo[1,2-b]pyridazin-6-yl]-2,6-dimethylpyridine-3-carboxamide] the IC50 [1] was 48 nM and the IC50 ([2]; Homo sapiens) was 127 nM.
`[2H]C([2H])([2H])Oc1nc(C)c(-c2ccc3nc(NC(C)=O)cn3n2)cc1C(=O)NC(C)c1ccccc1OC(F)(F)F` (single isomer, unassigned) [Example 13-2, 5-{2-acetamidoimidazo[1,2-b]pyridazin-6-yl}-2-(D3)methoxy-6-methyl-N-{1-[2-(trifluoromethoxy)phenyl]ethyl}pyridine-3-carboxamide] was tested, and the IC50 [1] was 6 nM and the IC50 [2] was 1 nM.
Compound `[2H]C([2H])([2H])Oc1nc(C)c(-c2ccc3nc(NC(C)=O)cn3n2)cc1C(=O)NCc1cc(OCC2CC2)ccc1F` [Example 180, N-{[5-(cyclopropyhnethoxy)-2-fluorophenyl]methyl}-5-{2-acetamidoimidazo[1,2-b]pyridazin-6-yl}-2-(deutero)methoxy-6-methylpyridine-3-carboxamide] has an IC50 [1] of 4 nM and an IC50 ([2]; Homo sapiens) of 18 nM.
With `COc1c(F)cc(F)cc1CNC(=O)c1c(C)ccc(-c2ccc3nc(NC(C)=O)cn3n2)c1F` [Example 414, N-[(3,5-difluoro-2-methoxyphenyl)methyl]-3-{2-acetamidoimidazo [1,2-b]pyridazin-6-yl}-2-fluoro-6-methylbenzamide] the IC50 [1] was 91 nM and the IC50 ([2]; Homo sapiens) was 384 nM.
`Cc1ncc(-c2ccc3nc(NC(=O)CN(C)C)cn3n2)cc1C(=O)NCC[C@H](O)c1ccc(Cl)cc1` [Example 347, N-[(3S)-3-(4-chlorophenyl)-3-hydroxypropyl]-5-{2-[2-(dimethylamino)-acetamido]-imidazo[1,2-b]pyridazin-6-yl}-2-methylpyridine-3-carboxamide] showed an IC50 [1] of 44 nM and an IC50 ([2]; Homo sapiens) of 89 nM.
Compound `CC(=O)Nc1cn2nc(-c3cc(C(=O)NCc4ccccc4OC(F)(F)F)cnc3C)ccc2n1` [Example 233, 5-{2-acetamidoimidazo[1,2-b]pyridazin-6-yl}-6-methyl-N-{[2-(trifluoromethoxy)phenyl]methyl}pyridine-3-carboxamide] has an IC50 [1] of 38 nM and an IC50 ([2]; Homo sapiens) of 276 nM.
With `[2H]C([2H])([2H])Oc1ncc(-c2ccc3nc(NC(C)=O)cn3n2)cc1C(=O)NCc1cc(F)cc(F)c1OC([2H])([2H])C1CC1` [Example 49, N-({2-[cyclopropyl(deutero)methoxy]-3,5-difluorophenyl}methyl)-5-{2-acetamidoimidazo[1,2-b]pyridazin-6-yl}-2-(D3)methoxypyridine-3-carboxamide] the IC50 [1] was 3 nM and the IC50 ([2]; Homo sapiens) was 5 nM.
`COc1ncc(-c2ccc3nc(NC(=O)C(C)C)cn3n2)cc1C(=O)NCc1cc(F)cc(F)c1OCC1CC1` [Example 5, N-{[2-(cyclopropylmethoxy)-3,5-difluorophenyl]methyl}-2-methoxy-5-[2-(2-methylpropanamido)imidazo[1,2-b]pyridazin-6-yl]pyridine-3-carboxamide] gave an IC50 [1] of 7 nM and an IC50 ([2]; Homo sapiens) of 11 nM.
Compound `COc1nc(C)c(-c2ccc3nc(NC(C)=O)cn3n2)cc1C(=O)N(C)Cc1ccccc1OC(F)(F)F` [Example 283, 5-{2-acetamidoimidazo[1,2-b]pyridazin-6-yl}-2-methoxy-N,6-dimethyl-N-{[2-(trifluoromethoxy)phenyl]methyl}pyridine-3-carboxamide] has an IC50 [1] of 16 nM and an IC50 ([2]; Homo sapiens) of 67 nM.
For `CC(=O)Nc1cn2nc(-c3cc(F)cc(C(=O)NCC[C@@H](O)c4ccc(Cl)cc4)c3)ccc2n1` [Example 370, N-[(3R)-3-(4-chlorophenyl)-3-hydroxypropyl]-3-{2-acetamidoimidazo [1,2-b]pyridazin-6-yl}-5-fluorobenzamide], the IC50 [1] was 34 nM and the IC50 ([2]; Homo sapiens) was 210 nM.
`CC(=O)Nc1cn2nc(-c3cc(C(=O)NCc4cc(OC(F)(F)F)ccc4F)c(C)nc3C)ccc2n1` [Example 81, 5-{2-acetamidoimidazo[1,2-b]pyridazin-6-yl}-N-{[2-fluoro-5-(trifluoromethoxy)phenyl]methyl}-2,6-dimethylpyridine-3-carboxamide] gave an IC50 [1] of 5 nM and an IC50 ([2]; Homo sapiens) of 2 nM.
Compound `COc1ncc(-c2ccc3nc(NC(C)=O)cn3n2)cc1C(=O)NCc1cc(F)cc(F)c1OC(C)C1CC1` (centres unmarked) [Example 148, N-{[2-(1-cyclopropylethoxy)-3,5-difluorophenyl]methyl}-5-(2-acetamidoimidazo[1,2-b]pyridazin-6-yl}-2-methoxypyridine-3-carboxamide] has an IC50 [1] of 4 nM and an IC50 ([2]; Homo sapiens) of 2 nM.
`CCc1ncc(-c2ccc3nc(NC(C)=O)cn3n2)cc1C(=O)N[C@H](C)c1cc(OC(F)(F)F)ccc1F` [Example 328, 5-{2-acetamidoimidazo[1,2-b]pyridazin-6-yl}-2-ethyl-N-[(1R)-1-[2-fluoro-5-(trifluoromethoxy)phenyl]ethyl]pyridine-3-carboxamide] gave an IC50 [1] of 36 nM and an IC50 ([2]; Homo sapiens) of 198 nM.
In the case of `CC(=O)Nc1cn2nc(-c3cnc(C)c(C(=O)NCc4cc(F)ccc4OCC(F)(F)F)c3)ccc2n1` [Example 195, 5-{2-acetamidoimidazo[1,2-b]pyridazin-6-yl}-N-{[5-fluoro-2-(2,2,2-trifluoroethoxy)phenyl]methyl}-2-methylpyridine-3-carboxamide], the IC50 [1] is reported as 43 nM and the IC50 ([2]; Homo sapiens) is reported as 188 nM.
In the case of `COc1nc(C)c(-c2ccc3nc(NC(C)=O)cn3n2)cc1C(=O)NCc1ccc(F)c(F)c1OCC1CC1` [Example 286, N-{[2-(cyclopropylmethoxy)-3,4-difluorophenyl]methyl}-5-{2-acelamidoimidazo[1,2-b]pyridazin-6-yl}-2-methoxy-6-methylpyridine-3-carboxamide], the IC50 [1] is reported as 9 nM and the IC50 [2] is reported as 19 nM.
With `COc1ncc(-c2ccc3nc(NC(=O)C(C)(C)O)cn3n2)cc1C(=O)NCc1cccc(F)c1OCC1CC1` [Example 15, N-{[2-(cyclopropylmethoxy)-3-fluorophenyl]methyl}-5-[2-(2-hydroxy-2-methylpropanamido)imidazo[1,2-b]pyridazin-6-yl]-2-methoxypyridine-3-carboxamide] the IC50 [1] was 83 nM and the IC50 ([2]; Homo sapiens) was 198 nM.
Work on `[2H]C([2H])([2H])Oc1nc(C)c(-c2ccc3nc(NC(C)=O)cn3n2)cc1C(=O)NCc1cc(OC(F)(F)F)ccc1F` [Example 179, 5-{2-acetamidoimidazo[1,2-b]pyridazin-6-yl}-N-{[2-fluoro-5-(trifluoromethoxy)phenyl]methyl}-2-(deutero)methoxy-6-methylpyridine-3-carboxamide] yielded an IC50 [1] of 3 nM and an IC50 ([2]; Homo sapiens) of 13 nM.
